Several values for one entry are separate records, joined by “and”; a condition that tells them apart may be missing. Equal entries are not always repeated. Toxic doses and inconclusive results are not listed.
Tested on: CD2F1 mice, L1210 leukemia ip, survival T/C
Assay: NCI In Vivo Anticancer Drug Screen. Data for tumor model L1210 Leukemia (intraperitoneal) in CD2F1 (CDF1) mice
Conditions: endpoint: mean survival time, higher = longer survival
In short: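 Ratio T/C, where T is the treated-group value and C the vehicle-dosed control value, from mice implanted with a transplantable tumor.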

[1] = dose: 100.0 mg/kg/injection, schedule: Q01DX009 (ip), vehicle: saline with Tween-80
[2] = dose: 200.0 mg/kg/injection, schedule: Q01DX009 (ip), vehicle: saline with Tween-80
[3] = dose: 100.0 mg/kg/injection, schedule: Q04DX003 (ip), vehicle: saline with Tween-80
[4] = dose: 200.0 mg/kg/injection, schedule: Q04DX003 (ip), vehicle: saline with Tween-80
[5] = dose: 400.0 mg/kg/injection, schedule: Q04DX003 (ip), vehicle: saline with Tween-80

## CSCCC(NC(=O)COc1ccc(Cl)cc1Cl)C(=O)O (stereo unspecified)
dose: 50.0 mg/kg/injection, schedule: Q01DX009 (ip), vehicle: Klucel (hydroxypropylcellulose) (HPC)
  T/C: 100 % of control
dose: 100.0 mg/kg/injection, schedule: Q01DX009 (ip), vehicle: Klucel (hydroxypropylcellulose) (HPC)
  T/C: 89 % of control
dose: 200.0 mg/kg/injection, schedule: Q01DX009 (ip), vehicle: Klucel (hydroxypropylcellulose) (HPC)
  T/C: 91 % of control

## Cc1ccc(S(N)(=O)=O)cc1
[1]
  T/C: 94 % of control
[2]
  T/C: 97 % of control
dose: 400.0 mg/kg/injection, schedule: Q01DX009 (ip), vehicle: saline with Tween-80
  T/C: 102 % of control

## CCC[CH2][Sn]1([CH2]CCC)[O]CC2OC(n3cc(C)c(=O)[nH]c3=O)CC2[O]1 (stereo unspecified)
dose: 0.78 mg/kg/injection, schedule: Q01DX005 (ip), vehicle: other
  T/C: 97 % of control
dose: 1.56 mg/kg/injection, schedule: Q01DX005 (ip), vehicle: other
  T/C: 101 % of control
dose: 3.13 mg/kg/injection, schedule: Q01DX005 (ip), vehicle: other
  T/C: 106 % of control

## CC(=O)Nc1ccc(-c2c(NCCO)ncc3ccccc23)cc1
dose: 25.0 mg/kg/injection, schedule: Q04DX003 (ip), vehicle: other
  T/C: 104 % of control
dose: 50.0 mg/kg/injection, schedule: Q04DX003 (ip), vehicle: other
  T/C: 98 % of control
dose: 100.0 mg/kg/injection, schedule: Q04DX003 (ip), vehicle: other
  T/C: 98 % of control
dose: 200.0 mg/kg/injection, schedule: Q04DX003 (ip), vehicle: other
  T/C: 104 % of control

## [N-]=C=S.[N-]=C=S.[NH-]N.[NH-]N.[Zn]
dose: 25.0 mg/kg/injection, schedule: Q04DX002 (ip), vehicle: saline with Tween-80
  T/C: 96 % of control
dose: 50.0 mg/kg/injection, schedule: Q04DX002 (ip), vehicle: saline with Tween-80
  T/C: 100 % of control
dose: 100.0 mg/kg/injection, schedule: Q04DX002 (ip), vehicle: saline with Tween-80
  T/C: 102 % of control

## CS(=O)(=O)OCCOS(C)(=O)=O
[1]
  T/C: 109 % of control
[3]
  T/C: 104 % of control
[2]
  T/C: 116 % of control
[4]
  T/C: 115 % of control
[5]
  T/C: 111 % of control

## C[C@]1(O)CC[C@H]2[C@@H]3CCC4=CC(=O)CC[C@]4(C)[C@@]3(Cl)[C@@H](O)C[C@@]21C
dose: 100.0 mg/kg/injection, schedule: Q04DX003 (ip), vehicle: saline sonified
  T/C: 101 % of control
dose: 176.0 mg/kg/injection, schedule: Q04DX003 (ip), vehicle: saline with Tween-80
  T/C: 91 % of control
dose: 200.0 mg/kg/injection, schedule: Q04DX003 (ip), vehicle: saline sonified
  T/C: 107 % of control
dose: 264.0 mg/kg/injection, schedule: Q04DX003 (ip), vehicle: saline with Tween-80
  T/C: 96 % of control
[5]
  T/C: 94 % of control

## CCN(CC)CCNc1cc(OC)cc2cccnc12
dose: 6.25 mg/kg/injection, schedule: Q04DX002 (ip), vehicle: saline
  T/C: 98 % of control
dose: 12.5 mg/kg/injection, schedule: Q04DX002 (ip), vehicle: saline
  T/C: 98 % of control
dose: 25.0 mg/kg/injection, schedule: Q04DX002 (ip), vehicle: saline
  T/C: 95 % of control

## OCC1c2ccc(Cl)cc2Nc2ccc(Cl)cc21 (stereo unspecified)
[3]
  T/C: 93 % of control
[4]
  T/C: 89 % of control
[5]
  T/C: 91 % of control

## CC(=O)N(C(C)=O)c1ccccc1
[3]
  T/C: 97 % of control
[4]
  T/C: 97 % of control
[5]
  T/C: 103 % of control

## O=NN(CCCl)C(=O)NC1CCCN(Cc2ccccc2)C1 (stereo unspecified)
dose: 6.25 mg/kg/injection, schedule: Q01DX001 (ip), vehicle: saline with Tween-80
  T/C: 106 % of control
dose: 12.5 mg/kg/injection, schedule: Q01DX001 (ip), vehicle: saline with Tween-80
  T/C: 115 % of control
dose: 50.0 mg/kg/injection, schedule: Q01DX001 (ip), vehicle: saline with Tween-80
  T/C: 168 % of control
dose: 100.0 mg/kg/injection, schedule: Q01DX001 (ip), vehicle: saline with Tween-80
  T/C: 340 % of control

## C/C(=N\NC(N)=O)c1cccc(/C(C)=N/NC(N)=O)n1
dose: 6.25 mg/kg/injection, schedule: Q01DX009 (ip), vehicle: saline with Tween-80
  T/C: 102 % of control and 103 % of control
dose: 12.5 mg/kg/injection, schedule: Q01DX009 (ip), vehicle: saline with Tween-80
  T/C: 103 % of control and 104 % of control
dose: 25.0 mg/kg/injection, schedule: Q01DX009 (ip), vehicle: saline with Tween-80
  T/C: 100 % of control and 101 % of control
dose: 50.0 mg/kg/injection, schedule: Q01DX009 (ip), vehicle: saline with Tween-80
  T/C: 98 % of control and 103 % of control
[1]
  T/C: 92 % of control and 102 % of control
[2]
  T/C: 91 % of control and 110 % of control

## O=C1c2ccccc2C(=O)N1CNc1cccc(NCN2C(=O)c3ccccc3C2=O)n1
[3]
  T/C: 104 % of control
[4]
  T/C: 106 % of control
[5]
  T/C: 90 % of control

## CCOC(Cc1cccc2ccccc12)(c1ccccc1)c1ccccc1
[3]
  T/C: 101 % of control
[4]
  T/C: 98 % of control
[5]
  T/C: 101 % of control

From PubChem BioAssay AID256 (DTP/NCI, 2004)
